Assay: Measurement of copper on hair after shampoo/rinse-off conditioner wash cycles (ICP-OES)
Conditions: picolinic acid in the rinse-off conditioner; after 20 clarifying shampoo/rinse-off conditioner cycles
Protocol: All testing are performed on colored hair switches (see Method of Measurement of copper on hair below) weighing approximately 4.0 grams and having a length of approximately 6 inches. The hair switches are commercially available from IHIP (International Hair Importers). Three hair switches per shampoo composition are used. An amount of […] of shampoo is spread via a syringe onto separate hair switch. That is, the dosage is 0.10 g of shampoo per g of hair. Each application consists of adding shampoo to the hair, milking for 30 seconds followed by rinsing for 30 seconds. Shampoo is then reapplied (0.1 g/g), milked for 30 seconds and rinsed for 30 seconds. Excess water is squeezed from the hair switches and left to air dry or treated with a rinse-off conditioner and/or a leave-on treatment composition. This protocol is repeated for a number of times/cycles (as indicated in the tables below, which describe the details of hair treatments).
All testing are performed on colored hair switches (see Method of Measurement of copper on hair below) weighing approximately 4.0 grams and having a length of approximately 6 inches. […]
Samples of 100 mg of hair were digested overnight with 2 ml of high purity concentrated nitric acid. […] Copper content of the hair switches was determined by inductively coupled plasma atomic spectroscopy (ICP-OES)). For each leg, 3 different samples were analyzed. […]

Q: Which “Removal of copper from hair compared to clarifying shampoo/control rinse-off conditioner” value does the source give for `O=C(O)c1ccccn1` [picolinic acid] here?
A: effective removal of copper from hair
